{"source": "patent US20060185411A1", "about": "“Calcium polysulfide, potassium polysulfide, calcium thiosulfate, and magnesium thiosulfate as urease inhibitors” (Tessenderlo Kerley, Inc., priority 2005, published 2006)", "key": {"[1]": {"test_system": "urease", "assay": "Ammonia volatilization from soil-applied urea solution with additive compound (continuous air purge, ammonia collected in sulfuric acid, indophenol blue method)", "description": "(§1) The amount of additive compound set forth in Table 1 below was added to a solution of reagent grade urea having a urea concentration of 13850 micrograms of nitrogen per 2 ml, together with the desired amount of compound. This urea concentration was selected to be equivalent to an application rate of 100 lbs of nitrogen per acre. A standard sample containing only urea in the same concentration and an unfertilized blank (2 ml of distilled water) also were applied to soil.\nThe amounts of additive compound were calculated to provide the desired quantity of that compound appropriate for application of a 50 percent w/v solution of urea (i.e., 50 grams of urea per 100 ml of water) to supply 100 lbs of nitrogen per acre. Each additive compound was used at 5 and 10 percent of the volume of urea solution. The treatments were therefore equivalent to the application 198 liters (52.3 US gallons) of urea solution per acre together with 9.9 liters (2.6 US gallons) of additive compound at the low rate or 19.8 liters (5.2 US Gallons) at the high rate.\nSoil was treated and ammonia measurements were taken in accordance with the following method. Plastic containers with a diameter of 4.2 cm were used for this study. Each container was filled with 60 g of a sandy soil and moistened with 12 mls water to 86% of its water holding capacity. All treatments were surface applied in 2 mls of solution, bringing the moisture level up to field capacity.\nThe air was humidified before introduction by bubbling it through distilled water, then passing it through a cotton plug to remove moisture droplets. Evolved ammonia was collected by passing the air through 50 mls of 0.5 M sulfuric acid. This was sufficient to collect 3 times the total amount of nitrogen added, ensuring that the solution never became saturated with ammonia. The amounts of ammonia collected in the sulfuric acid solutions were determined by the indophenol blue method.\nAmmonia measurements were taken at 2 and 7 days after application. […] The amounts of ammonia collected are expressed as a percentage of the total that was applied.\nas §1, with “Table 3” for “Table 1”\nThe amounts of additive compound were calculated to provide the desired quantity of that compound appropriate for application of a 50 percent w/v solution of urea (i.e., 50 grams of urea per 100 ml of water) to supply 100 lbs of nitrogen per acre. The urea and additive compounds were applied to soil in accordance with the method described in Example 1.\nCalcium polysulfide solution was added at a rate of 1, 2, 4 and 8 percent of the volume of urea solution. K-Sul® was added at a rate of 5 and 10 percent of the volume of urea solution. Ammonia measurements were taken at 2 and 7 days after application. […] The amounts of ammonia collected are expressed as a percentage of the total that was applied.\nIn each treatment, the appropriate amount of product was added to a solution of reagent grade urea and made to 100 mls in volumetric flasks. Concentrations were adjusted to ensure that the 2 mls of each solution provided 13850 micrograms of nitrogen together with the required amount of product to provide the equivalent of an application rate of 100 lbs of nitrogen per acre. A standard sample contained only urea and an unfertilized blank was treated with 2 mls of distilled water."}, "[2]": {"test_system": "nitrification", "settings": "combination with UAN or banded urea solution; literature; cited from earlier work"}, "[3]": {"test_system": "soil urease", "settings": "surface application of urea; literature; cited from earlier work"}, "[4]": {"assay": "pH of the solutions of urea and additive compound", "type": "physicochemical", "settings": "urea-only solution"}, "[5]": {"test_system": "urease", "settings": "Example 6"}, "[6]": {"settings": "Example 1, urea only, no additive"}, "[7]": {"settings": "Example 3, urea only, no additive"}, "[8]": {"settings": "Example 5, urea only, no additive"}}, "note": "Read-outs that look alike come from different tables or passages of the source.", "data": [{"compound": "ammonium polysulfide", "values": [{"measurement": "urease inhibition and ammonia volatilization inhibition, comparison between products (in words)", "setting": "[1]; summary of Examples 1-4", "value": "less urease inhibition activity than calcium polysulfide"}, {"measurement": "effect on nitrification (in words)", "setting": "[2]", "value": "no effect on nitrification"}]}, {"compound": "ammonium polyphosphate", "values": [{"measurement": "effect on nitrification (in words)", "setting": "[2]", "value": "only a weak effect"}]}, {"compound": "[Ca+2].[Cl-].[Cl-]", "note": "[Calcium chloride]", "values": [{"measurement": "effect on ammonia volatilization (in words)", "setting": "[3]", "value": "delays the start of ammonia volatilization"}]}, {"compound": "NC(N)=O", "note": "[Urea]", "values": [{"measurement": "% Loss 0-2 days", "setting": "[1]; [6]", "value": 22.0, "unit": "%"}, {"measurement": "% Loss 3-7 days", "setting": "[1]; [6]", "value": 3.9, "unit": "%"}, {"measurement": "% Loss Total", "setting": "[1]; [6]", "value": 25.9, "unit": "%"}, {"measurement": "% lost 0-2 days", "setting": "[1]; [7]", "value": 25.56, "unit": "%"}, {"measurement": "% lost 3-7 days", "setting": "[1]; [7]", "value": 11.45, "unit": "%"}, {"measurement": "% lost Total", "setting": "[1]; [7]", "value": 37.01, "unit": "%"}, {"measurement": "% lost 0-2 days", "setting": "[1]; [8]", "value": 25.50, "unit": "%"}, {"measurement": "% lost 3-7 days", "setting": "[1]; [8]", "value": 8.25, "unit": "%"}, {"measurement": "% lost Total", "setting": "[1]; [8]", "value": 33.75, "unit": "%"}, {"measurement": "Solution pH", "setting": "[4]; Example 2", "value": 8.4}, {"measurement": "Solution pH", "setting": "[4]; Example 4", "value": 9.0}, {"measurement": "% of N applied", "setting": "[5]; 100 lbs N per ac", "value": 2.07, "unit": "%"}, {"measurement": "Ammonia collected, mg Day 2", "setting": "[5]; 100 lbs N per ac", "value": 0.14, "unit": "mg"}, {"measurement": "Ammonia collected, mg Day 7", "setting": "[5]; 100 lbs N per ac", "value": 2.32, "unit": "mg"}, {"measurement": "Ammonia collected, mg Day 14", "setting": "[5]; 100 lbs N per ac", "value": 0.78, "unit": "mg"}, {"measurement": "Ammonia collected, mg Day 21", "setting": "[5]; 100 lbs N per ac", "value": 0.00, "unit": "mg"}, {"measurement": "Ammonia collected, mg Day 28", "setting": "[5]; 100 lbs N per ac", "value": 0.00, "unit": "mg"}, {"measurement": "Ammonia collected, mg Total", "setting": "[5]; 100 lbs N per ac", "value": 3.25, "unit": "mg"}, {"measurement": "% of N applied", "setting": "[5]; 200 lbs N per ac", "value": 3.17, "unit": "%"}, {"measurement": "Ammonia collected, mg Day 2", "setting": "[5]; 200 lbs N per ac", "value": 0.31, "unit": "mg"}, {"measurement": "Ammonia collected, mg Day 7", "setting": "[5]; 200 lbs N per ac", "value": 4.86, "unit": "mg"}, {"measurement": "Ammonia collected, mg Day 14", "setting": "[5]; 200 lbs N per ac", "value": 4.31, "unit": "mg"}, {"measurement": "Ammonia collected, mg Day 21", "setting": "[5]; 200 lbs N per ac", "value": 0.47, "unit": "mg"}, {"measurement": "Ammonia collected, mg Day 28", "setting": "[5]; 200 lbs N per ac", "value": 0.00, "unit": "mg"}, {"measurement": "Ammonia collected, mg Total", "setting": "[5]; 200 lbs N per ac", "value": 9.94, "unit": "mg"}]}]}
